Data as given in patent US8936667B2, “Aqueous leaching process for recovery of precious metals with addition of di-thiooxamide ligand” (Anglo Operations Limited, priority 2009, dated 2015).
Values after ≈ are worked out from the molar mass of the structure shown.

Assays:
physchem = assay type: physicochemical
Description: Prior to the leach, the ligand is dissolved in water which has been pre-adjusted to the leach pH. […] It was suspected that the ligand became doubly deprotonated at pH 13.5 and above.

[1] = Leaching of Witwatersrand gold ore, parameter studies (Example 2); conditions: oxygen/permanganate, Eh above 60 mV; 25° C., 0.9 g/l DTO
Source text: A head sample was submitted with every batch of samples in order to minimise errors caused by discrepancies in analysis among batches. The metal extractions for a particular batch of samples were therefore calculated using the head sample analysis from the same batch.
Deionised water was used in all preparation, dissolution, leach and washing steps.
The leach procedure was as follows:
The required amounts of ligand and alkaline water were mixed in a jacketed leach reactor until the ligand was fully dissolved. The ore was then added to the solution (unless otherwise specified, initial solids concentration was 17% m/m) and the reactor lid was fitted on. A stirring impeller, pH and (Ag/AgCl) redox electrodes, titration dispensing tube, temperature probe and gas distribution tube (if oxygen was used) were fitted into ports in the lid. The ore was then leached for the required amount of time. A water bath was used to maintain the leach temperature for the duration of the leach. The leach pH was controlled with an autotitrator. If oxygen was the oxidant, a mass flow controller was used to control oxygen-flow into the solution. At the end of the leach period, the slurry was filtered and the residue was given at least two water washes using water of the same pH as the leach solution, followed by a final wash with deionised water. […]

NC(=S)C(N)=S [DTO, dithiooxamide]
Solubility in water (physchem): does not have good solubility in water
Solubility of the ligand (physchem): extremely low
pKa (physchem): 11
solubility (physchem; pH 12, aqueous buffer, thermodynamic from solid): ~900 µg/mL (≈ 7.49 mM)
Dissolution of ligand in water pre-adjusted to leach pH (physchem; pH 13.5 to 14 compared with pH 11 to 13): dissolved far more readily
Leach time to maximum gold extraction [1]: 4 h
